Columns and labels:
T cell line KSI 10B7 = test: Mapping of epitope(s) recognised by T cell line KSI 10B7, IFN-γ ELISPOT with T2 cells as APC; assay type: cell-based, human; details: individual peptides, triplicate
Experimental: T cells were tested by IFN-γ ELISPOT assays against either the whole BAX peptide mixture (1-23), or different sub-pools (1-9, 10-15, 16-23) or individual peptides (10, 11, 12, 13, 14 and 15). T2 cells (which only express HLA-A*0201) were used as APC. All combinations were tested in triplicate, with 600 spots being the maximum number that could be counted in these assays; and
Further immunomagnetic enrichment, flow sorting and expansion, led to the derivation of a T cell line (KSI 10B7), with 100% specificity for BAX peptides that bound to HLA-A*0201 (data not shown). This T cell line was tested by IFN-γ ELISPOT assays against either the whole BAX peptide mixture (1-23), or different sub-pools (1-9, 10-15, 16-23) or individual peptides (10, 11, 12, 13, 14 and 15). All combinations were tested in triplicate, with 600 spots being the maximum number that could be counted in these assays. KSI 10B7 T cells recognised two similar BAX peptides (10 and 13, FIG. 9). Both these peptides were predicted to bind to HLA-A*0201 (Table 4) and had similar amino acid sequences ([…] and […]). It is believed that the KSI 10B7 T cells recognised the […] sequence that is common to both peptides.

[1] = test system: IFN-γ producing T cells specific for the immunising peptide; test: In vivo immunogenicity in HLA-A*0201 transgenic mice, IFN-γ ELISPOT on splenocytes; design: species or system HLA-A2/Kb transgenic mice; details: responding/immunised mice; 100 μg peptide in incomplete freunds adjuvant, splenocytes after ten to eleven days
[2] = test system: CD8+ T cells recognising Rb7 peptide; test: Detection of peptide specific CD8+ T cells in patient blood with fluoresceinated multimeric HLA-A2/peptide complexes; assay type: cell-based, human; details: 4 patients tested (3 with cervical cancer, 1 CIN3); low frequency
Experimental: T cells reactive against peptides of the invention should be preferentially found in HLA-A2 patients with cervical cancer. Blood samples from 4 patients (3 with cervical cancer, 1 with premalignant disease, CIN3) were tested for the presence of CD8^+ T cells recognising Rb7 peptide. Fluoresceinated multimeric HLA-A2/peptide complexes were used to measure numbers of peptide specific T cells by flow cytometry (10). […] These frequencies were similar to those previously obtained for HPV16 E7 peptide specific T cells (10).

[3] = test system: CD8+ pentamer+ T lymphocytes; test: Peptide:HLA-A2 pentamer staining of CD8+ T cells from healthy HLA-A2+ donors after 14 days culture with peptide; assay type: cell-based, human
Experimental: On day 0 and day 14 days, the numbers of peptide specific CD8^+ T cells were measured using appropriate fluoresceinated peptide:HLA-A2 pentamers. These were analysed on a flow cytometer and expressed as % of gated cells, excluding dead and […] cells.

Row | Substance | Recognition by KSI 10B7 T cells (T cell line KSI 10B7) | Mice with significant T cell responses (IFN-γ ELISPOT) [1] | Patients in whose blood T cells specific for Rb7 peptide could be detected [2] | Frequency of peptide specific T lymphocytes, in words ([3]; 8 healthy donors (all HLA-A2+)) | Healthy donors in whom T lymphocytes recognising the peptide could be detected ([3]; 8 healthy donors (all HLA-A2+) tested) | Frequency of CD8+ pentamer+ cells ([3]; healthy donor 1, 14 days culture with peptide) | Frequency of CD8+ pentamer+ cells ([3]; healthy donor 2, 14 days culture with peptide) | Frequency of CD8+ pentamer+ cells ([3]; healthy donor 3, 14 days culture with peptide) | Frequency of CD8+ pentamer+ cells ([3]; healthy donor 4, 14 days culture with peptide) | Frequency of CD8+ pentamer+ cells ([3]; healthy donor 5, 14 days culture with peptide) | Frequency of CD8+ pentamer+ cells ([3]; healthy donor 6, 14 days culture with peptide) | Frequency of CD8+ pentamer+ cells ([3]; healthy donor 7, 14 days culture with peptide) | Frequency of CD8+ pentamer+ cells ([3]; healthy donor 8, 14 days culture with peptide)
1 | IMGWTLDFL [BAX peptide 13] | recognised |  |  |  |  |  |  |  |  |  |  |  | 
2 | Rb7: peptide from Rb485-493 (Rb7) protein, derived from human Rb protein (SLLACALEV) |  | 7/10 | 2 patients | variable but generally low frequencies | 8 healthy donors | 1/2500 | 1/1000 | 1/1000 | 1/909 | 1/120 | 1/3333 | 1/2000 | 1/2500
3 | TIMGWTLDFL [BAX peptide 10] | recognised |  |  |  |  |  |  |  |  |  |  |  | 
